We go through five molecules from patent US11103504B2, “Combination of a DNA condensation-inducing compound and an Eis inhibitor for antibiotic treatment” (priority 2018, dated 2021).

SMILES strings stand for the structures.

Assay [1] has as its system M. tuberculosis mc^26030. Put plainly: DNA-condensation incidence by fluorescence microscopy. It is filed as cell-based, Mycobacterium tuberculosis. As to conditions: for fraction of bacilli with condensed DNA: 20 times the MIC50, 1 hour, vs control, P<0.05, FIG. 2D; for induction of condensation of the DNA: summary statement.
Assay [2] concerns M. smegmatis mc^2155. Put plainly: DNA localization / DNA-condensation by fluorescence microscopy. The format is cell-based, Mycobacterium smegmatis.
Another assay concerns M. smegmatis mc^2 155. Put plainly: DNA volume quantification (deconvolved wide-field FM). As to conditions: incubated with FA for 1 hour, FIG. 5B. The format is cell-based, Mycobacterium smegmatis. How it is done: Z-stack Wide-field FM images of fixed M. smegmatis mc^2 155 stained for DNA and lipids were collected at 200 nm increments. Deconvolution and DNA volume quantification was subsequently performed using standard deconvolution parameters of Huygens Professional software (Scientific Volume Imaging, SVI, Hilversum, The Netherlands). Average volume was determined for 60 bacteria per condition per experiment and standard deviation was calculated with 2-tailed T-test.

In assay [3] the test system is M. smegmatis mc^2155. In words: Monitoring mycobacterial survival (OD600, CFU). The format is cell-based, Mycobacterium smegmatis. As to conditions: combination of fusidic acid and Eis inhibition. As for the experimental part:
M. smegmatis mc^2155 overnight cultures were treated with FA, EIS inhibitor 1a*, or a combination hereof. Cultures were treated with antibiotic for 1 hour before second antibiotic was administered. Before treatment, and after 2 hours and at day 1,2,3 and 6, the OD600 was determined with a spectrophotometer, and a sample of the culture was fixed, or plated in a dilution series on 7H10 plates in triplo. At day 2, the antibiotic treatment was repeated. At least 3 independent experiments were quantified per condition.
In all experiments, factor correction was applied to remove systematic differences between the different measuring sessions needed to obtain the results. In case of 2 experimental conditions, Student's t-test was applied. […] To further dissect these effects, a 1-way ANOVA per time point was performed.

For a further assay, the system named is M. smegmatis. In words: Live cell imaging with bacterial viability staining. It is filed as cell-based, Mycobacterium smegmatis. Particulars: live-cell imaging started 5 minutes after FA addition.
The subject of assay [4] is M. tuberculosis mc^26030. It is filed as cell-based, Mycobacterium tuberculosis. As to conditions: 1 hour after FA treatment vs untreated.
Assay [5] concerns M. smegmatis mc^23449 SMC triple deletion mutant. The format is cell-based, Mycobacterium smegmatis. As to conditions: FA 1 hour, FIGS. 6A-B.
Assay [6] deals with M. smegmatis mc^2155. Put plainly: Transmission electron microscopy of ultrathin sections. It is filed as cell-based, Mycobacterium smegmatis. Particulars: FA treated, early log phase.

`CCn1cc(C(=O)O)c(=O)c2ccc(C)nc21` [nalidixic acid]: in the assay on M. tuberculosis mc^26030 [1], the “fraction of bacilli with condensed DNA” value is reported as “increased the percentage bacteria with condensed DNA significantly” and the “induction of condensation of the DNA” value was “can induce condensation of the DNA”.

Take `CC(=O)NC[C@H]1CN(c2ccc(N3CCOCC3)c(F)c2)C(=O)O1` [linezolid]: the “induction of condensation of the DNA” value in the assay on M. tuberculosis mc^26030 [1] was “can induce condensation of the DNA”.

Regarding `NNC(=O)c1ccncc1` [isoniazid], the “induction of condensation of the DNA” value in the assay on M. tuberculosis mc^26030 [1] was “can induce condensation of the DNA”.

Regarding `CC(=O)O[C@H]1C[C@@]2(C)[C@@H](C[C@@H](O)[C@H]3[C@@]4(C)CC[C@@H](O)[C@@H](C)[C@@H]4CC[C@@]32C)/C1=C(\CCC=C(C)C)C(=O)O` [fusidic acid], the “DNA distribution after 2 days” value in the assay with M. smegmatis mc^2155 [2] (2 days of incubation, first agent 1 hour before second) is reported as “still displayed condensed DNA”. For the same molecule, the “bacteria that condensed their nucleoid” value in the assay on M. smegmatis mc^2155 [2] (after 1 hour of antibiotic stress, FIG. 2C) is “more than 80%”. Also, the “bacteria that condensed their DNA into a single nucleoid after FA treatment” value in the assay with M. smegmatis mc^2155 [2] (early log phase, FIG. 2A) is “more than 90%”. In the assay with M. tuberculosis mc^26030 [1], the “incidence of DNA-condensation after wash-out (reversibility)” value is recorded as “increased until 6 hours after treatment, followed by a gradual reduction”; the “fraction of bacilli with condensed DNA” value was “increased the percentage bacteria with condensed DNA significantly”; the “induction of condensation of the DNA” value is given as “can induce condensation of the DNA”. In the assay on M. tuberculosis mc^26030 [1] (same experimental conditions as M. smegmatis, FIG. 2B), the “DNA localization after FA treatment” value is listed as “condensed their DNA into a single nucleoid”. The “average 3D volume of the DNA clusters” value with M. smegmatis mc^2 155 is listed as 0.24 μm^3. The “potentiation of efficacy by the combination” value with M. smegmatis mc^2155 [3] amounted to 10 fold. In the assay on M. smegmatis, the “time until first bacteria converted from viable to inviable” value stood at 16 min. In the assay on M. tuberculosis mc^26030 [4], the “percentage of nonviable bacteria with condensed DNA” value was “did not differ” and the “percentage of viable bacteria with condensed DNA” value was “increased significantly”. For the same molecule, the “DNA condensation after FA treatment in SMC triple knock out” value in assay [5] is “clearly visible”. Moreover, in the assay with M. smegmatis mc^2155 [6], the “ultrastructural DNA localization (TEM)” value is listed as “bundles of DNA were localized in a single compact nucleoid”.

Consider `[H]/N=C(/N)N[C@H]1[C@H](O)[C@@H](O)[C@H](O[C@@H]2O[C@@H](C)[C@](O)(C=O)[C@H]2O[C@@H]2O[C@@H](CO)[C@H](O)[C@@H](O)[C@@H]2NC)[C@@H](N/C(N)=N\[H])[C@@H]1O` [streptomycin], for which, in the assay on M. tuberculosis mc^26030 [1], the “fraction of bacilli with condensed DNA” value was “increased the percentage bacteria with condensed DNA significantly” and the “induction of condensation of the DNA” value is “can induce condensation of the DNA”.
